From ChEMBL document CHEMBL3091383, “Sorbicillamines A-E, nitrogen-containing sorbicillinoids from the deep-sea-derived fungus Penicillium sp. F23-2” (J Nat Prod, 2013)

Experiments:
[1] = system: P388; assay: Cytotoxicity against mouse P388 cells by SRB assay; type: functional, cell-based
[2] = system: HCT-116; assay: Cytotoxicity against human HCT116 cells by MTT assay; type: functional, cell-based
[3] = system: HEK293; assay: Cytotoxicity against HEK293 cells by MTT assay; type: cell-based; conditions: Homo sapiens
[4] = Cytotoxicity against human Bel7402 cells by MTT assay; type: functional, cell-based; conditions: Bel-7402
[5] = system: HeLa; assay: Cytotoxicity against human HeLa cells by MTT assay; type: functional, cell-based

Measured: IC50

C/C=C/C=C/C(O)=C1/C(=O)C(C)=C(O)[C@@]2(C)O[C@@]3(O)[C@@](C)(O)C4=C(C(=O)C[C@@H](/C=C/C)N4)C(=O)[C@@]3(C)[C@@H]12
> 10 µM: all assays above

C/C=C/C=C/C(O)=C1/C(=O)C(C)=C(O)[C@@]2(C)O[C@@]3(O)[C@@](C)(O)C4=C(C(=O)C[C@H](/C=C/C)N4)C(=O)[C@@]3(C)[C@@H]12
> 10 µM: all assays above

C/C=C/C=C/C(=O)C1=C(O)[C@]2(C)C(=O)[C@@](C)(O)[C@H]1N1CCC[C@@H]12
> 10 µM: all assays above

C/C=C/C=C/C(=O)C1=C(N)[C@](C)(O)[C@]2(O)O[C@]3(C)C(O)=C(C)C(=O)/C(=C(O)/C=C/C=C/C)[C@@H]3[C@]2(C)C1=O
> 10 µM: all assays above

C/C=C/C=C/C(O)=C1\C(=O)[C@]2(C)C(=O)C(C)(O)[C@H]1[C@H](C(=O)C1=C(N)[C@](C)(O)[C@]3(O)O[C@]4(C)C(O)=C(C)C(=O)\C(=C(O)/C=C/C=C/C)[C@@H]4[C@]3(C)C1=O)[C@H]2/C=C/C (stereo not given in full)
> 10 µM: all assays above
